Assay results as given in patent US20240147991A1, “Diphenyl Tablets and Methods of Preparing the Same” (Ideaz, LLC, priority 2018, published 2024).

Experiment: Evaluation of sublimation of diphenyl tablets versus granules exposed to air
Type: physicochemical
Conditions: 22 days; 1.06 grams substance at start; empty tray 1 3.715 grams (tablets), empty tray 2 3.650 grams (granules)
Text: Two trays were fashioned from equal sized sheets of aluminum foil and tape. The trays were each weighed after fashioning, with tray 1 weighing 3.715 grams and tray 2 weighing 3.650 grams (a weight difference between trays of 0.065 grams). Two compressed diphenyl tablets handled with tweezers were first weighed at a total weight of 1.06 grams and then placed into tray 1. An equal amount of diphenyl granules (i.e., having a total weight of 1.06 grams) was spooned into tray 2.
Both trays were exposed to air over 22 days and re-weighed. Tray 1 weighed 4.45 grams and tray 2 weighed 3.99 grams. After adjusting the weight difference of the trays by subtracting 0.065 grams from tray 1, it can be seen that the diphenyl tablets sublimed at a slower rate than the diphenyl granules by retaining 8.88 weight % more than the granules after being exposed to air for 22 days.

## c1ccc(-c2ccccc2)cc1 [diphenyl granules, diphenyl]
  Weight of tray with substance after exposure to air: 3.99 grams
